According to US12503461B2, “Pesticidally active heterocyclic derivatives with sulfur and sulfoximine containing substituents” (SYNGENTA CROP PROTECTION AG, priority 2019, dated 2025):

Tests used:
Assay type in all cases: in vivo
[1] = test system: Bemisia tabaci (Cotton White Fly); assay: Example B6: Bemisia tabaci (cotton white fly), feeding/contact activity, sprayed cotton leaf discs; settings: foliar, 144 h, application rate of 200 ppm, adult white flies, 6 days after incubation
Experimental: Example B6: Bemisia tabaci (Cotton White Fly). Feeding/Contact Activity
Cotton leaf discs were placed on agar in 24-well microtiter plates and sprayed with aqueous test solutions prepared from 10′000 ppm DMSO stock solutions. After drying the leaf discs were infested with adult white flies. The samples were checked for mortality 6 days after incubation.

[2] = test system: Diabrotica balteata (Corn Root Worm); assay: Example B1: Diabrotica balteata (corn root worm), sprayed maize sprouts on agar, L2 larvae; settings: 96 h, application rate of 200 ppm, 4 days after infestation, in comparison to untreated samples, read-out: effect in at least one of the two categories (mortality or growth inhibition)
Experimental: Example B1: Diabrotica balteata (Corn Root Worm
Maize sprouts placed onto an agar layer in 24-well microtiter plates were treated with aqueous test solutions prepared from 10′000 ppm DMSO stock solutions by spraying. After drying, the plates were infested with L2 larvae (6 to 10 per well). The samples were assessed for mortality and growth inhibition in comparison to untreated samples 4 days after infestation.

[3] = test system: Spodoptera littoralis (Egyptian Cotton Leaf Worm); assay: Example B7: Spodoptera littoralis (Egyptian cotton leaf worm), sprayed cotton leaf discs, L1 larvae; settings: foliar, 72 h, application rate of 200 ppm, 3 days after infestation, in comparison to untreated samples
Method in brief: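 Cotton leaf discs on agar were sprayed with aqueous test solutions made from 10′000 ppm DMSO stocks, dried, and infested with five L1 larvae. Mortality, anti-feeding and growth inhibition were scored against untreated samples 3 days after infestation; control means any category exceeds the untreated sample.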

[4] = test system: Plutella xylostella (Diamond Back Moth); assay: Example B4: Plutella xylostella (diamond back moth), treated artificial diet, eggs; settings: 192 h, application rate of 200 ppm, 8 days after infestation, in comparison to untreated samples, read-out: effect in at least one of the two categories (mortality or growth inhibition)
Experimental: Example B4: Plutella xylostella (Diamond Back Moth
24-well microtiter plates with artificial diet were treated with aqueous test solutions prepared from 10′000 ppm DMSO stock solutions by pipetting. After drying, Plutella eggs were pipetted through a plastic stencil onto a gel blotting paper and the plate was closed with it. The samples were assessed for mortality and growth inhibition in comparison to untreated samples 8 days after infestation.

[5] = test system: Chilo suppressalis (Striped Rice Stemborer); assay: Example B9: Chilo suppressalis (striped rice stemborer), treated artificial diet, L2 larvae; settings: 144 h, application rate of 200 ppm, 6 days after infestation, in comparison to untreated samples, read-out: control (mortality, anti-feeding effect, or growth inhibition)
Experimental: Example B9: Chilo suppressalis (Striped Rice Stemborer
24-well microtiter plates with artificial diet were treated with aqueous test solutions prepared from 10′000 ppm DMSO stock solutions by pipetting. After drying, the plates were infested with L2 larvae (6-8 per well). The samples were assessed for mortality, anti-feeding effect, and growth inhibition in comparison to untreated samples 6 days after infestation. Control of Chilo suppressalis by a test sample is given when at least one of the categories mortality, anti-feedant effect, and growth inhibition is higher than the untreated sample.

[6] = test system: Myzus persicae (Green Peach Aphid); assay: Example B5: Myzus persicae (green peach aphid), feeding/contact activity, sprayed sunflower leaf discs; settings: foliar, 144 h, application rate of 200 ppm, aphid population of mixed ages, 6 days after infestation
Experimental: Example B5: Myzus persicae (Green Peach Aphid). Feeding/Contact Activity
Sunflower leaf discs were placed onto agar in a 24-well microtiter plate and sprayed with aqueous test solutions prepared from 10′000 ppm DMSO stock solutions. After drying, the leaf discs were infested with an aphid population of mixed ages. The samples were assessed for mortality 6 days after infestation.

[7] = test system: Frankliniella occidentalis (Western Flower Thrips); assay: Example B3: Frankliniella occidentalis (western flower thrips), sprayed sunflower leaf discs; settings: foliar, 168 h, application rate of 200 ppm, population of mixed ages, 7 days after infestation
Experimental: Example B3: Frankliniella occidentalis (Western Flower Thrips
Sunflower leaf discs were placed on agar in 24-well microtiter plates and sprayed with aqueous test solutions prepared from […] stock solutions. After drying the leaf discs were infested with a Frankliniella population of mixed ages. The samples were assessed for mortality 7 days after infestation.

[8] = test system: Euschistus heros (Neotropical Brown Stink Bug); assay: Example B2: Euschistus heros (neotropical brown stink bug), sprayed soybean leaves, N2 nymphs; settings: 120 h, application rate of 200 ppm, 5 days after infestation, in comparison to untreated samples, read-out: effect in at least one of the two categories (mortality or growth inhibition)
Experimental: Example B2: Euschistus heros (Neotropical Brown Stink Bug
Soybean leaves on agar in 24-well microtiter plates were sprayed with aqueous test solutions prepared from 10′000 ppm DMSO stock solutions. After drying the leaves were infested with N2 nymphs. The samples were assessed for mortality and growth inhibition in comparison to untreated samples 5 days after infestation.

CCS(=O)(=O)c1cc(C2(C#N)CC2)cnc1-c1nc2cc(S(=O)(=NCC(F)(F)F)C(F)(F)F)cnc2n1C (stereo not drawn) [P57, 1-[5-ethylsulfonyl-6-[3-methyl-6-[N-(2,2,2-trifluoroethyl)-S-(trifluoromethyl)sulfonimidoyl]imidazo[4,5-b]pyridin-2-yl]-3-pyridyl]cyclopropanecarbonitrile]
≥ 80%: mortality at 200 ppm [1] | percent effect (mortality or growth inhibition) at 200 ppm [2] | percent control (mortality, anti-feeding effect or growth inhibition) at 200 ppm [3] | percent effect (mortality or growth inhibition) at 200 ppm [4] | percent control (mortality, anti-feedant effect or growth inhibition) at 200 ppm [5] | mortality at 200 ppm [6] | mortality at 200 ppm [7]

CCS(=O)(=O)c1cc(C2(C#N)CC2)cnc1-c1nc2cc(S(=O)(=NC3CC3)C(F)(F)F)cnc2n1C (stereo not drawn) [P58, 1-[6-[6-[N-cyclopropyl-S-(trifluoromethyl)sulfonimidoyl]-3-methyl-imidazo[4,5-b]pyridin-2-yl]-5-ethylsulfonyl-3-pyridyl]cyclopropanecarbonitrile]
≥ 80%: mortality at 200 ppm [1] | percent effect (mortality or growth inhibition) at 200 ppm [2] | percent control (mortality, anti-feeding effect or growth inhibition) at 200 ppm [3] | percent effect (mortality or growth inhibition) at 200 ppm [4] | percent control (mortality, anti-feedant effect or growth inhibition) at 200 ppm [5] | effect (mortality or growth inhibition) at 200 ppm [8]
